Assay results reported in the kinase profiling compilation of Christmann-Franck et al. (2016).

Columns and labels:
Experiment in all cases: radiometric filter-binding kinase assay, Kinase HotSpot
Conditions in all cases: compound 0.5 µM; ATP 10 µM
IKBKB (human) = IKBKB (human) (UniProt O14920)
RET (human) = RET (human) (UniProt P07949)
DAPK1 (human) = DAPK1 (human) (UniProt P53355)
MAPK12 (human) = MAPK12 (human) (UniProt P53778)
FES (human) = FES (human) (UniProt P07332)
EPHB1 (human) = EPHB1 (human) (UniProt P54762)
RPS6KA3 KD1 KD2 (human) = RPS6KA3 KD1 KD2 (human) (UniProt P51812)
CDK1 CCNA2 (human) = CDK1 CCNA2 (human) (UniProt P06493+P20248)
IKBKE (human) = IKBKE (human) (UniProt Q14164)
AURKA (human) = AURKA (human) (UniProt O14965)
NEK2 (human) = NEK2 (human) (UniProt P51955)
CSK (human) = CSK (human) (UniProt P41240)
TEC (human) = TEC (human) (UniProt P42680)
STK3 (human) = STK3 (human) (UniProt Q13188)
FLT1 (human) = FLT1 (human) (UniProt P17948)
NTRK3 (human) = NTRK3 (human) (UniProt Q16288)
CAMK4 (human) = CAMK4 (human) (UniProt Q16566)
BTK (human) = BTK (human) (UniProt Q06187)
PIM3 (human) = PIM3 (human) (UniProt Q86V86)
PAK4 (human) = PAK4 (human) (UniProt O96013)
IRAK4 (human) = IRAK4 (human) (UniProt Q9NWZ3)
WEE1 (human) = WEE1 (human) (UniProt P30291)
PRKCB2 (human) = PRKCB2 (human) (UniProt P05771)
PRKCI (human) = PRKCI (human) (UniProt P41743)
NTRK2 (human) = NTRK2 (human) (UniProt Q16620)
ACVR1B (human) = ACVR1B (human) (UniProt P36896)
MAPK14 (human) = MAPK14 (human) (UniProt Q16539)
MAP4K5 (human) = MAP4K5 (human) (UniProt Q9Y4K4)
GRK4 (human) = GRK4 (human) (UniProt P32298)
KDR (human) = KDR (human) (UniProt P35968)
CSNK2A1 (human) = CSNK2A1 (human) (UniProt P68400)
HIPK4 (human) = HIPK4 (human) (UniProt Q8NE63)
SYK (human) = SYK (human) (UniProt P43405)
TEK (human) = TEK (human) (UniProt Q02763)
ZAP70 (human) = ZAP70 (human) (UniProt P43403)
PAK2 (human) = PAK2 (human) (UniProt Q13177)
PAK7 (human) = PAK7 (human) (UniProt Q9P286)
RAF1 (human) = RAF1 (human) (UniProt P04049)
SGK3 (human) = SGK3 (human) (UniProt Q96BR1)
CAMK1G (human) = CAMK1G (human) (UniProt Q96NX5)
ULK1 (human) = ULK1 (human) (UniProt O75385)
MAPK1 (human) = MAPK1 (human) (UniProt P28482)

Chain of GRK4 (human) (P32298 whole entry, looked up): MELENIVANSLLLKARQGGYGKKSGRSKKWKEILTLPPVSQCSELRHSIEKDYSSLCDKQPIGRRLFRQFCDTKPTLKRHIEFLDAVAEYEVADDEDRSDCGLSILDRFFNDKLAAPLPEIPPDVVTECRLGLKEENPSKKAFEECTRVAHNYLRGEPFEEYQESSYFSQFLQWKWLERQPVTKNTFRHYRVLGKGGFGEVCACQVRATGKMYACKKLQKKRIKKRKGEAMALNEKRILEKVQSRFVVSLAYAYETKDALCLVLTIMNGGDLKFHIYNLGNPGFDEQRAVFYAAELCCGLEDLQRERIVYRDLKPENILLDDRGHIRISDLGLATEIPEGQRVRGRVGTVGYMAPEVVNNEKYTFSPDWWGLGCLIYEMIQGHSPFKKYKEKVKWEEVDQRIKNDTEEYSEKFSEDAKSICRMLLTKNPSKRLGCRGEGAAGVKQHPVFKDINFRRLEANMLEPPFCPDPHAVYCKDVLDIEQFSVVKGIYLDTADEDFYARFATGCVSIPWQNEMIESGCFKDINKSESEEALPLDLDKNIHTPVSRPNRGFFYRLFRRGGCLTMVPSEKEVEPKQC
Chain of AURKA (human) (O14965 whole entry, looked up): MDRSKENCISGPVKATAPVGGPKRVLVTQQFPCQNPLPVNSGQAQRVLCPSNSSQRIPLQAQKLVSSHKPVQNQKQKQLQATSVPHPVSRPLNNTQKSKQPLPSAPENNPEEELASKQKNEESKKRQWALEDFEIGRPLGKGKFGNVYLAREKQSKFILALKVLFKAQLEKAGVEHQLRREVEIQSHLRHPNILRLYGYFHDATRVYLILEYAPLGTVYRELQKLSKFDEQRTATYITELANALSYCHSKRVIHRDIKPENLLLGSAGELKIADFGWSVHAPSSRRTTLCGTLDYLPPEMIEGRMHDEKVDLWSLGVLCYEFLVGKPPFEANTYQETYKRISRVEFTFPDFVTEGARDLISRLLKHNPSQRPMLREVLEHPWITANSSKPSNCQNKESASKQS
Chain of SGK3 (human) (Q96BR1 whole entry, looked up): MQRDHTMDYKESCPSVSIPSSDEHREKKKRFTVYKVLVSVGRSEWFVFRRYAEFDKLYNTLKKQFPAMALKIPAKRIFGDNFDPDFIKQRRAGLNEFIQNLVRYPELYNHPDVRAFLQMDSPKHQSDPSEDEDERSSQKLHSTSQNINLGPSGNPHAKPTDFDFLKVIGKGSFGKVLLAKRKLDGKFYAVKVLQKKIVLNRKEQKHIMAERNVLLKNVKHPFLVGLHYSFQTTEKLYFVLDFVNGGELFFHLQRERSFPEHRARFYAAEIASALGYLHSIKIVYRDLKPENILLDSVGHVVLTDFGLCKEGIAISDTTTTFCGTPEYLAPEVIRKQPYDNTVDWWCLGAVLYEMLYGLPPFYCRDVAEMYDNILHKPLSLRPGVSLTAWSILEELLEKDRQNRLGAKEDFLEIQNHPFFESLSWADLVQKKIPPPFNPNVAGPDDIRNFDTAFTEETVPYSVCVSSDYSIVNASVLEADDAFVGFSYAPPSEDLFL
Chain of KDR (human) (P35968 whole entry, looked up): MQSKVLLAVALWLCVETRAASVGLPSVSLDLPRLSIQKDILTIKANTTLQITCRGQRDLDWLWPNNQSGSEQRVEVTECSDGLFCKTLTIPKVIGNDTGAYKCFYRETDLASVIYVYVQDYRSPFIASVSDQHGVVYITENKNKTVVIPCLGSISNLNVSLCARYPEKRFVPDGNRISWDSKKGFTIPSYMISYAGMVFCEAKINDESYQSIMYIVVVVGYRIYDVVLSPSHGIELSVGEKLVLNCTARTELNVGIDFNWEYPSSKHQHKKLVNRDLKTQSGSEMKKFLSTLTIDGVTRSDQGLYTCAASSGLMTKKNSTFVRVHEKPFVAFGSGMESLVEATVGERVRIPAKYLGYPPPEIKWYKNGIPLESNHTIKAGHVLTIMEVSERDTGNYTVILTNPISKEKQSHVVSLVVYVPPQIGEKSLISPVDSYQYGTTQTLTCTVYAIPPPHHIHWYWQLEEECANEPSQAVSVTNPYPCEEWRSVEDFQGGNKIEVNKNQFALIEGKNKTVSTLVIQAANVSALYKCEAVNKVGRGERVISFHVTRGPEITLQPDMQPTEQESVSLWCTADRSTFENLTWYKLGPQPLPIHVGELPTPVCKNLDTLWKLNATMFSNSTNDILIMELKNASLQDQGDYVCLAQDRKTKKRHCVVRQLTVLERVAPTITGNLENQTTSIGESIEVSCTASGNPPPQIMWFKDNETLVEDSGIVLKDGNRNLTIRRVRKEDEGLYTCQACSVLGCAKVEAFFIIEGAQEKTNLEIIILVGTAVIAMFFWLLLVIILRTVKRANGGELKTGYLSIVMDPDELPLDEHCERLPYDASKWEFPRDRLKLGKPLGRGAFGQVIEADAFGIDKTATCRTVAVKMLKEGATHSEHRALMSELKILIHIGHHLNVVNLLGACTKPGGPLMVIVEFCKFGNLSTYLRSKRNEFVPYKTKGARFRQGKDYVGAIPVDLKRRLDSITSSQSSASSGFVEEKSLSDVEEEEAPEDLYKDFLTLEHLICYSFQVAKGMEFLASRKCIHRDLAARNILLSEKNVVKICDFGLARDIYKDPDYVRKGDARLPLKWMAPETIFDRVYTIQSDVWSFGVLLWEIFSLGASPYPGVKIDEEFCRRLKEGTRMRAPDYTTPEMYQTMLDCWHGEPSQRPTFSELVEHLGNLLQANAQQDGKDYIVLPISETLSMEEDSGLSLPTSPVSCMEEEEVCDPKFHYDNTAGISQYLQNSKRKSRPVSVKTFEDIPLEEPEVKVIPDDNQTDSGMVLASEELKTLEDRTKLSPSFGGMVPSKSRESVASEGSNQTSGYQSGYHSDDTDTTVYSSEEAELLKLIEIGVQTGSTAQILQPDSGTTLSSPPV
Chain of DAPK1 (human) (P53355 whole entry, looked up): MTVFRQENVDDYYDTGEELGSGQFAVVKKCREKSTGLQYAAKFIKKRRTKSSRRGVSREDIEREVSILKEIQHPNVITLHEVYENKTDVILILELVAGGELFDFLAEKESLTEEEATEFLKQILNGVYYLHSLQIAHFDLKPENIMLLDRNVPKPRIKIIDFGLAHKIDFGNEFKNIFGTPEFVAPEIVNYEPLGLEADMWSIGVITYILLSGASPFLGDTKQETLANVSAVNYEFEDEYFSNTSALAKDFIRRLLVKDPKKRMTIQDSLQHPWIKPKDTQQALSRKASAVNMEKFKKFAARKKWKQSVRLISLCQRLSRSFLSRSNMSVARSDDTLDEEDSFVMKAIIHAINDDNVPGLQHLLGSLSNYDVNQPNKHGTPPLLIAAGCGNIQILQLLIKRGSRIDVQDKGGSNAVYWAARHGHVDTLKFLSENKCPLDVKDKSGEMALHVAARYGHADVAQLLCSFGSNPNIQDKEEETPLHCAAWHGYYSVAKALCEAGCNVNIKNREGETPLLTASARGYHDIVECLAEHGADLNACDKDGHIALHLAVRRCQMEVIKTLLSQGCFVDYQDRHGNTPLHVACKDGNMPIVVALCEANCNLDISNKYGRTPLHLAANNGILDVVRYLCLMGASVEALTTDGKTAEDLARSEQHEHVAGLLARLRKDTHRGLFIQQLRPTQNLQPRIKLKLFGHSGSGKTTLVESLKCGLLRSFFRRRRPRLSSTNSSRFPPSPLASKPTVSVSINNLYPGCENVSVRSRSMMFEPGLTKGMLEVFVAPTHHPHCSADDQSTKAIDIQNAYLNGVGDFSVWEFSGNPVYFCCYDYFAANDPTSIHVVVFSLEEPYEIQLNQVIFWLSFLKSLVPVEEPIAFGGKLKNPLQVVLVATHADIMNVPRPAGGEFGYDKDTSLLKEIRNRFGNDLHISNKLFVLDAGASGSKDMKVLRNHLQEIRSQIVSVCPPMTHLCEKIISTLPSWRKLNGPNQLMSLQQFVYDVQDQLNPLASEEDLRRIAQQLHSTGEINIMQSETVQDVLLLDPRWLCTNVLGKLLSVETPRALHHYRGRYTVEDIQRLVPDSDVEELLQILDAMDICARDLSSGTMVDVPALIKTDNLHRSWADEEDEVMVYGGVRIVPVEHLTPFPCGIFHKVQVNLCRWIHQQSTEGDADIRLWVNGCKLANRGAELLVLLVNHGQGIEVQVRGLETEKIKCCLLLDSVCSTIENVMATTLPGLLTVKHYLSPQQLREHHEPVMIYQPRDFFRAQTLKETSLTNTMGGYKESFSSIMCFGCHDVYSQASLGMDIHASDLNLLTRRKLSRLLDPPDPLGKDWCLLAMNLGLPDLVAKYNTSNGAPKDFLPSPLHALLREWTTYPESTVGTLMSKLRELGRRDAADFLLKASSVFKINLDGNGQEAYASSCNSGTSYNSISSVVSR
Chain of STK3 (human) (Q13188 whole entry, looked up): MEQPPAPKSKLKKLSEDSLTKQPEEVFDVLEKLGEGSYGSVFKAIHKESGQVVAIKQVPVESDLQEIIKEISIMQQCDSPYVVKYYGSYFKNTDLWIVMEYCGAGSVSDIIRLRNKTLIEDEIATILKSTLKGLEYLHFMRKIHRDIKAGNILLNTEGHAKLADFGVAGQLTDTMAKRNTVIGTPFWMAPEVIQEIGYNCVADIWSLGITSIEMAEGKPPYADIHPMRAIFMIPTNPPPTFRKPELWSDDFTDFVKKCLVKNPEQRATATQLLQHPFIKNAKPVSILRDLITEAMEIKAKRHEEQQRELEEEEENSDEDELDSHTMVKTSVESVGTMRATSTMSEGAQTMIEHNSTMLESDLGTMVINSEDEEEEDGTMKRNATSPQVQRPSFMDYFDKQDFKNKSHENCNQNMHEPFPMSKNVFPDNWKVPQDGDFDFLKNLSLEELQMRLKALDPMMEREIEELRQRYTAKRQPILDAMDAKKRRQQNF

SMILES: COc1ccc2c(c1)c(C1=C(c3c[nH]c4ccccc34)C(=O)NC1=O)cn2CCCN(C)C
- residual activity (IKBKB (human)): 99.6%
- residual activity (RET (human)): 79.9%
- residual activity (DAPK1 (human)): 105%
- residual activity (MAPK12 (human)): 84.8%
- residual activity (FES (human)): 120%
- residual activity (EPHB1 (human)): 91.7%
- residual activity (RPS6KA3 KD1 KD2 (human)): 6.55%
- residual activity (CDK1 CCNA2 (human)): 95.7%
- residual activity (IKBKE (human)): 100%
- residual activity (AURKA (human)): 86.6%
- residual activity (NEK2 (human)): 99.7%
- residual activity (CSK (human)): 84%
- residual activity (TEC (human)): 97.9%
- residual activity (STK3 (human)): 72.2%
- residual activity (FLT1 (human)): 22%
- residual activity (NTRK3 (human)): 54.9%
- residual activity (CAMK4 (human)): 90.3%
- residual activity (BTK (human)): 90.2%
- residual activity (PIM3 (human)): 5.01%
- residual activity (PAK4 (human)): 94.8%
- residual activity (IRAK4 (human)): 91.2%
- residual activity (WEE1 (human)): 85.1%
- residual activity (PRKCB2 (human)): 14.2%
- residual activity (PRKCI (human)): 67.6%
- residual activity (NTRK2 (human)): 88.1%
- residual activity (ACVR1B (human)): 111%
- residual activity (MAPK14 (human)): 103%
- residual activity (MAP4K5 (human)): 27.7%
- residual activity (GRK4 (human)): 92.8%
- residual activity (KDR (human)): 40.7%
- residual activity (CSNK2A1 (human)): 95.9%
- residual activity (HIPK4 (human)): 101%
- residual activity (SYK (human)): 68.5%
- residual activity (TEK (human)): 102%
- residual activity (ZAP70 (human)): 90.3%
- residual activity (PAK2 (human)): 108%
- residual activity (PAK7 (human)): 67.6%
- residual activity (RAF1 (human)): 99.3%
- residual activity (SGK3 (human)): 101%
- residual activity (CAMK1G (human)): 95%
- residual activity (ULK1 (human)): 99%
- residual activity (MAPK1 (human)): 102%

SMILES: CCCCc1c(-c2ccc(OC)cc2)[nH]c2nccnc12
- residual activity (IKBKB (human)): 102%
- residual activity (RET (human)): 56.3%
- residual activity (DAPK1 (human)): 90.6%
- residual activity (MAPK12 (human)): 102%
- residual activity (FES (human)): 66%
- residual activity (EPHB1 (human)): 76%
- residual activity (RPS6KA3 KD1 KD2 (human)): 88%
- residual activity (CDK1 CCNA2 (human)): 65.4%
- residual activity (IKBKE (human)): 100%
- residual activity (AURKA (human)): 25.5%
- residual activity (NEK2 (human)): 115%
- residual activity (CSK (human)): 87%
- residual activity (TEC (human)): 134%
- residual activity (STK3 (human)): 87%
- residual activity (FLT1 (human)): 103%
- residual activity (NTRK3 (human)): 84.4%
- residual activity (CAMK4 (human)): 97.6%
- residual activity (BTK (human)): 64.7%
- residual activity (PIM3 (human)): 90.9%
- residual activity (PAK4 (human)): 107%
- residual activity (IRAK4 (human)): 163%
- residual activity (WEE1 (human)): 85.9%
- residual activity (PRKCB2 (human)): 106%
- residual activity (PRKCI (human)): 72.8%
- residual activity (NTRK2 (human)): 73.4%
- residual activity (ACVR1B (human)): 112%
- residual activity (MAPK14 (human)): 112%
- residual activity (MAP4K5 (human)): 63.8%
- residual activity (GRK4 (human)): 96.7%
- residual activity (KDR (human)): 88.8%
- residual activity (CSNK2A1 (human)): 97.8%
- residual activity (HIPK4 (human)): 119%
- residual activity (SYK (human)): 47.5%
- residual activity (TEK (human)): 96.3%
- residual activity (ZAP70 (human)): 74.2%
- residual activity (PAK2 (human)): 97.5%
- residual activity (PAK7 (human)): 88.1%
- residual activity (RAF1 (human)): 99.9%
- residual activity (SGK3 (human)): 98.6%
- residual activity (CAMK1G (human)): 102%
- residual activity (ULK1 (human)): 87.9%
- residual activity (MAPK1 (human)): 103%

SMILES: Cc1cccc(-c2nc(C(C)(C)C)[nH]c2-c2ccc3c(c2)OCO3)n1
- residual activity (IKBKB (human)): 105%
- residual activity (RET (human)): 103%
- residual activity (DAPK1 (human)): 102%
- residual activity (MAPK12 (human)): 95.7%
- residual activity (FES (human)): 108%
- residual activity (EPHB1 (human)): 95.5%
- residual activity (RPS6KA3 KD1 KD2 (human)): 82.4%
- residual activity (CDK1 CCNA2 (human)): 96.7%
- residual activity (IKBKE (human)): 91.8%
- residual activity (AURKA (human)): 93.4%
- residual activity (NEK2 (human)): 107%
- residual activity (CSK (human)): 102%
- residual activity (TEC (human)): 123%
- residual activity (STK3 (human)): 97.7%
- residual activity (FLT1 (human)): 84.3%
- residual activity (NTRK3 (human)): 92.4%
- residual activity (CAMK4 (human)): 100%
- residual activity (BTK (human)): 118%
- residual activity (PIM3 (human)): 106%
- residual activity (PAK4 (human)): 77.5%
- residual activity (IRAK4 (human)): 86.8%
- residual activity (WEE1 (human)): 81.5%
- residual activity (PRKCB2 (human)): 99.9%
- residual activity (PRKCI (human)): 92.8%
- residual activity (NTRK2 (human)): 96.4%
- residual activity (ACVR1B (human)): 31%
- residual activity (MAPK14 (human)): 89.7%
- residual activity (MAP4K5 (human)): 99.2%
- residual activity (GRK4 (human)): 101%
- residual activity (KDR (human)): 94.7%
- residual activity (CSNK2A1 (human)): 98%
- residual activity (HIPK4 (human)): 107%
- residual activity (SYK (human)): 87%
- residual activity (TEK (human)): 95.2%
- residual activity (ZAP70 (human)): 106%
- residual activity (PAK2 (human)): 72.4%
- residual activity (PAK7 (human)): 92.7%
- residual activity (RAF1 (human)): 86.2%
- residual activity (SGK3 (human)): 98%
- residual activity (CAMK1G (human)): 98.7%
- residual activity (ULK1 (human)): 82.7%
- residual activity (MAPK1 (human)): 95.8%

SMILES: COc1cc2ncnc(Nc3ccc(OCc4ccccc4)cc3)c2cc1OC
- residual activity (IKBKB (human)): 103%
- residual activity (RET (human)): 89.1%
- residual activity (DAPK1 (human)): 98.5%
- residual activity (MAPK12 (human)): 102%
- residual activity (FES (human)): 97%
- residual activity (EPHB1 (human)): 101%
- residual activity (RPS6KA3 KD1 KD2 (human)): 103%
- residual activity (CDK1 CCNA2 (human)): 97.2%
- residual activity (IKBKE (human)): 99.7%
- residual activity (AURKA (human)): 91.3%
- residual activity (NEK2 (human)): 107%
- residual activity (CSK (human)): 72.5%
- residual activity (TEC (human)): 106%
- residual activity (STK3 (human)): 97.6%
- residual activity (FLT1 (human)): 96%
- residual activity (NTRK3 (human)): 93.8%
- residual activity (CAMK4 (human)): 101%
- residual activity (BTK (human)): 90.6%
- residual activity (PIM3 (human)): 119%
- residual activity (PAK4 (human)): 103%
- residual activity (IRAK4 (human)): 119%
- residual activity (WEE1 (human)): 94.7%
- residual activity (PRKCB2 (human)): 106%
- residual activity (PRKCI (human)): 101%
- residual activity (NTRK2 (human)): 92.5%
- residual activity (ACVR1B (human)): 102%
- residual activity (MAPK14 (human)): 101%
- residual activity (MAP4K5 (human)): 65.4%
- residual activity (GRK4 (human)): 106%
- residual activity (KDR (human)): 96.8%
- residual activity (CSNK2A1 (human)): 95.8%
- residual activity (HIPK4 (human)): 100%
- residual activity (SYK (human)): 93.1%
- residual activity (TEK (human)): 97.9%
- residual activity (ZAP70 (human)): 87.6%
- residual activity (PAK2 (human)): 102%
- residual activity (PAK7 (human)): 99.6%
- residual activity (RAF1 (human)): 61%
- residual activity (SGK3 (human)): 105%
- residual activity (CAMK1G (human)): 97.1%
- residual activity (ULK1 (human)): 107%
- residual activity (MAPK1 (human)): 100%
